Data: ChEMBL document CHEMBL6134873, “Identification of Novel Cyclobutane-Based Derivatives as Potent Acetyl-CoA Carboxylase Allosteric Inhibitors for Nonalcoholic Steatohepatitis Drug Discovery” (J Med Chem, 2025)

Experiments:
[1] = Oral bioavailability in Sprague-Dawley rat at 3 mg/kg measured for 0.25 to 24 hrs by LC-MS/MS analysis; assay type: ADME, organism-based; conditions: in vivo, time 0.25-24 hrs
[2] = Volume of distribution in Sprague-Dawley rat at 1 mg/kg, iv measured for 0.25 to 24 hrs by LC-MS/MS analysis; assay type: ADME, organism-based; conditions: in vivo, time 0.25-24 hrs
[3] = Biodistribution in 12 hr-fasted male wild-type Sprague-Dawley rat assessed as increase in ratio of drug concentration in liver/plasma at 3 mg/kg, po measured for 0.25 to 4 hrs by LC-MS/MS analysis; assay type: ADME, organism-based; conditions: in vivo, time 0.25-4 hrs
[4] = Toxicity in Sprague-Dawley rat model of DEN-induced liver fibrosis assessed as drug tolerance at 3 to 10 mg/kg, po qd treated for 4 weeks; assay type: organism-based; conditions: in vivo, 672 h, dose 3-10 mg/kg
[5] = Protein binding in human plasma; assay type: ADME, cell-free; conditions: read-out: PPB (converted)
[6] = Protein binding in mouse plasma; assay type: ADME, cell-free; conditions: read-out: PPB (converted)
[7] = Intrinsic clearance in mouse liver microsomes; assay type: ADME, Microsome; conditions: read-out: CLH
[8] = Intrinsic clearance in monkey liver microsomes; assay type: ADME, Macaca mulatta, Microsome; conditions: rhesus monkey, read-out: CLH
Cytochrome P450 1A2 = target: T1, Cytochrome P450 1A2 (Homo sapiens, UniProt P05177); assay: Inhibition of CYP1A2 (unknown origin); assay type: ADME
T1 sequence (P05177 whole entry): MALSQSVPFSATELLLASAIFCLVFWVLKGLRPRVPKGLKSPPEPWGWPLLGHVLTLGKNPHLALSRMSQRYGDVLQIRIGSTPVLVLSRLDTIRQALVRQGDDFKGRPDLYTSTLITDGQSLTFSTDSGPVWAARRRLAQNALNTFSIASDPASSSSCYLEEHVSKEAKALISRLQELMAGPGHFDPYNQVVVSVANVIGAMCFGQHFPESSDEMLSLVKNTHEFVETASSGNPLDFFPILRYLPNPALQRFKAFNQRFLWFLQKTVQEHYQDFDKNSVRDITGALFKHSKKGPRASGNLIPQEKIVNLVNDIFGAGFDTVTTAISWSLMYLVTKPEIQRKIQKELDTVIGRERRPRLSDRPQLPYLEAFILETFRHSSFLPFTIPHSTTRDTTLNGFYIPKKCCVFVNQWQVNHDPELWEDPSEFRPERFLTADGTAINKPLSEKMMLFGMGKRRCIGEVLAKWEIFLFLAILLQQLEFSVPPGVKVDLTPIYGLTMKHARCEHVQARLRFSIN

Cytochrome P450 3A4 = Cytochrome P450 3A4 (Homo sapiens, UniProt P08684); assay: Inhibition of CYP3A4 (unknown origin) using midazolam as substrate; assay type: ADME
[9] = target: Voltage-gated inwardly rectifying potassium channel KCNH2 (Homo sapiens, UniProt Q12809); assay: Inhibition of hERG; assay type: toxicity
[10] = Mutagenicity in Salmonella typhimurium by mini-Ames test; assay type: toxicity; conditions: salmonella enterica subsp. enterica serovar typhimurium
[11] = Stability of compound assessed as (1S,3s)-3-(1-((R)-2-(2-hydroxyphenyl)-2-((tetrahydro-2H-pyran-4-yl)oxy)ethyl)-5-methyl-6-(oxazol-2-yl)-2,4-dioxo-1,4-dihydrothieno[2,3-d]pyrimidin-3(2H)-yl)-1-methylcyclobutane-1-carboxylic acid metabolite formation by measuring retention time; assay type: ADME
[12] = Stability of compound assessed as remaining parent compound by measuring retention time; assay type: physicochemical
Acetyl-CoA carboxylase 1 = Acetyl-CoA carboxylase 1 (Homo sapiens, UniProt Q13085)
Description: Inhibition of recombinant human ACC1 using acetyl-Co A as substrate incubated for 60 mins in presence of ATP by ADP-Glo assay

in vivo [13] = conditions: Sprague-Dawley, rat, liver, po, 3 mg/kg
Description: Drug concentration in liver of Sprague-Dawley rat at 3 mg/kg, po measured after 1 hr by LC-MS/MS analysis

in vivo [14] = conditions: Sprague-Dawley, rat, liver, po, 3 mg/kg; remark: listed apart in the source
Description: Drug concentration in liver of Sprague-Dawley rat at 3 mg/kg, po measured after 4 hrs by LC-MS/MS analysis

Voltage-gated inwardly rectifying potassium channel KCNH2, sequence (Q12809 whole entry): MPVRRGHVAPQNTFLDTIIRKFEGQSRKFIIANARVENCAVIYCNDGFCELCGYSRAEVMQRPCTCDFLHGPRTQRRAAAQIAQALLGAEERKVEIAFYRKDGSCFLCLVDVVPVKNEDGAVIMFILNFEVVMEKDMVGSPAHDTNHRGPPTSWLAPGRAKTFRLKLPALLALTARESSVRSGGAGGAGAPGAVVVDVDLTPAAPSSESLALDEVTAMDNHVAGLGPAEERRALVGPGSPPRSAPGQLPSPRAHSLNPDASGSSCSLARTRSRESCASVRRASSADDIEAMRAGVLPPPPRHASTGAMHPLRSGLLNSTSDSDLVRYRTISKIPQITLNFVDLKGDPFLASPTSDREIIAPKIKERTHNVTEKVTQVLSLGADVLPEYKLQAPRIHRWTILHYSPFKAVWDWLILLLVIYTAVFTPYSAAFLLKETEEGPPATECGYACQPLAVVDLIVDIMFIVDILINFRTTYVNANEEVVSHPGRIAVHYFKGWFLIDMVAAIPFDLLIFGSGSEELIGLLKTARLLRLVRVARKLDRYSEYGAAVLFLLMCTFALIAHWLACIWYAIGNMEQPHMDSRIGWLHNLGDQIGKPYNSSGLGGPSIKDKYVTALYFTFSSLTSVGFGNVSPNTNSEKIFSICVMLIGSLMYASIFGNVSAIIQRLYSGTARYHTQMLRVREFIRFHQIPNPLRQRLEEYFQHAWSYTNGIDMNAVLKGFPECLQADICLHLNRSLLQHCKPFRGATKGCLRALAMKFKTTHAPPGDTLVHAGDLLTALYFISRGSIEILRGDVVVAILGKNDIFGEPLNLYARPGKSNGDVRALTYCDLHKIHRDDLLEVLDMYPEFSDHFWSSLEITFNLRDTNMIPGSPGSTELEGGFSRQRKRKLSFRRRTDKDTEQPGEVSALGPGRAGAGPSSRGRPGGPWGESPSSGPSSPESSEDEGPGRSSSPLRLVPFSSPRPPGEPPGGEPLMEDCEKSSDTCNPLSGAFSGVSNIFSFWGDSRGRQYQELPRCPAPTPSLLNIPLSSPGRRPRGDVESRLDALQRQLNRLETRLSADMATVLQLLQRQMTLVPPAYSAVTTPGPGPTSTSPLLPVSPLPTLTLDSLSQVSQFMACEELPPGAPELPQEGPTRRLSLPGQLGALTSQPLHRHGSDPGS
Cytochrome P450 3A4, sequence (P08684 whole entry): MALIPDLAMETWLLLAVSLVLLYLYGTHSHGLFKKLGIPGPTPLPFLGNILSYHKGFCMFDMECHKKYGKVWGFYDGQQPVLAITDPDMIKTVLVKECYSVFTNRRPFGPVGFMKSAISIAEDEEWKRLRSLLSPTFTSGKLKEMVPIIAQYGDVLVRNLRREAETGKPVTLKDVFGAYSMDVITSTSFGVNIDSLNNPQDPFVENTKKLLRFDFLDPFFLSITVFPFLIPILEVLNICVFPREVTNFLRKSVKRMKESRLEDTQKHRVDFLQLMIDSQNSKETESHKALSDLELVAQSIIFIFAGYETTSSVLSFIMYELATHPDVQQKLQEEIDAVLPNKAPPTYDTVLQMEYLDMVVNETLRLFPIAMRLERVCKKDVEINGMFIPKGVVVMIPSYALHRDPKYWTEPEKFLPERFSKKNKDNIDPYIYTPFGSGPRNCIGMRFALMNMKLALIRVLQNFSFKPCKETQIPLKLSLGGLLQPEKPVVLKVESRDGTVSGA

SMILES: COc1ccccc1[C@H](Cn1c(=O)n([C@H]2C[C@@](C)(C(=O)O)C2)c(=O)c2c(C)c(-c3ncco3)sc21)OC1CCOCC1
- bioavailability [1]: 22%
- Vd [2]: 2.8 L/kg
- Drug uptake [3]: Active
- Activity [4]: Non-toxic
- fraction unbound [5]: 0.037
- fraction unbound [6]: 0.054
- CLint scaled [7]: 44.4 mL/min/kg
- CLint scaled [8]: < 13 mL/min/kg
- IC50 (Cytochrome P450 1A2): > 30 µM
- IC50 (Cytochrome P450 3A4): > 30 µM
- IC50 [9]: > 30 µM
- Activity [10]: Non-toxic
- Retention_time [11]: 9.36 min
- Retention_time [12]: 10.61 min
- IC50 (Acetyl-CoA carboxylase 1): 0.00073 µM
- concentration at 1 h (in vivo [13]): 2940 ng/mL
- concentration at 4 h (in vivo [14]): 4830 ng/mL
